Source: patent publication US20250101041A1, “POSITIVE ALLOSTERIC MODULATORS OF THE MUSCARINIC ACETYLCHOLINE RECEPTOR M4” (Vanderbilt University, priority 2022, published 2025)

Biological target: T1, human mAChR M4 (Homo sapiens, UniProt P08173)
T1 construct: expressed in transfected cells; host or cells: CHO-K1 (American Type Culture Collection), stably expressing hM4 and Gqi5
T1 sequence (P08173 1-479): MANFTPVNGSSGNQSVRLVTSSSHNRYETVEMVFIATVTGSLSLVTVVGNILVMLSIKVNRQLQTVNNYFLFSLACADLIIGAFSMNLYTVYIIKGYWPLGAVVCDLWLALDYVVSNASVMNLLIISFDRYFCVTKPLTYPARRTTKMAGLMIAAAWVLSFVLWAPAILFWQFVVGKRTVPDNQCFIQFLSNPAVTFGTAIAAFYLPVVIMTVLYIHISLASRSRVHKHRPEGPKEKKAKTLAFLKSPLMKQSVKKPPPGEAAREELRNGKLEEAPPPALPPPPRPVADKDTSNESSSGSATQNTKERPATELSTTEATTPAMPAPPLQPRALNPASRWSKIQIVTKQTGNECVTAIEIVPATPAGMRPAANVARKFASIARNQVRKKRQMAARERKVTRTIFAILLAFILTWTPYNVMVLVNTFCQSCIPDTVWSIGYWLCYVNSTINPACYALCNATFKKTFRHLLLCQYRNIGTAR
Experiment: mAChR M4 cell-based functional assay: calcium mobilization (Fluo-4, FDSS), potentiation of EC20 acetylcholine response in hM4-Gqi5 CHO-K1 cells
Details: human M4; for Emax at 30 µM: CHO-K1, % ACh maximum at 30 μM; for EC50: potentiation of EC20 acetylcholine response, calcium mobilization
Method in brief: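 Readout is the fluorescence-ratio rise at 1 Hz on FDSS, with PAM activity taken as concentration-dependent enhancement of the EC20 acetylcholine response, fitted four-parameter for EC50/Emax. hM4-Gqi5 CHO-K1 cells carried Fluo-4 AM dye; test compounds (11 points, 1:3) preceded EC20 acetylcholine additions at 144 s and 230 s.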

Row | Compound | Emax at 30 µM [%] | EC50 [µM]
1 | COc1ccsc1-c1cnc2c(c1)CN(c1nn3c(=O)cc(C(F)F)nc3c(C)c1C)CC2 [Compound 1-311, 2-(difluoromethyl)-7-(3-(3-methoxythiophen-2-yl)-7,8-dihydro-1,6-naphthyridin-6(5H)-yl)-8,9-dimethyl-4H-pyrimido[1,2-b]pyridazin-4-one] | 79 | 1.27
2 | Cc1cc(=O)n2nc(N3CCc4ncc(-c5cc(F)cc(F)c5F)cc4C3)c(C)cc2n1 [Compound 1-253, 2,8-dimethyl-7-(3-(2,3,5-trifluorophenyl)-7,8-dihydro-1,6-naphthyridin-6(5H)-yl)-4H-pyrimido[1,2-b] pyridazin-4-one] | 54 | 2.33
3 | Cc1c(N2CCc3ncc(-c4cncc(F)c4)cc3C2)nn2c(=O)ccnc2c1C [Compound 1-103, 7-(3-(5-fluoropyridin-3-yl)-7,8-dihydro-1,6-naphthyridin-6(5H)-yl)-8,9-dimethyl-4H-pyrimido[1,2-b]pyridazin-4-one] | 93 | 0.449
4 | Cc1c(N2CCc3ncc(-c4cnn(CCN5CCOCC5)c4)cc3C2)nn2c(=O)cc(C(F)F)nc2c1C [Compound 1-173, 2-(difluoromethyl)-8,9-dimethyl-7-(3-(1-(2-morpholinoethyl)-1H-pyrazol-4-yl)-7,8-dihydro-1,6-naphthyridin-6(5H)-yl)-4H-pyrimido[1,2-b]pyridazin-4-one] | 81 | 0.338
5 | Cc1cc2nccc(=O)n2nc1N1CCc2ncc(-c3cc(C#N)n(C)c3C)cc2C1 [Compound 1-423, 1,5-dimethyl-4-(6-(8-methyl-4-oxo-4H-pyrimido[1,2-b]pyridazin-7-yl)-5,6,7,8-tetrahydro-1,6-naphthyridin-3-yl)-1H-pyrrole-2-carbonitrile] | 79 | 1.19
6 | COCc1cc(=O)n2nc(N3CCc4ncc(-c5cnc(F)cc5C)cc4C3)c(C)cc2n1 [Compound 1-327, 7-(3-(6-fluoro-4-methylpyridin-3-yl)-7,8-dihydro-1,6-naphthyridin-6(5H)-yl)-2-(methoxymethyl)-8-methyl-4H-pyrimido[1,2-b]pyridazin-4-one] | 71 | 0.311
7 | COc1cc(-c2cnc3c(c2)CN(c2nn4c(=O)ccnc4cc2C)CC3)ccn1 [Compound 1-38, 7-(3-(2-methoxypyridin-4-yl)-7,8-dihydro-1,6-naphthyridin-6(5H)-yl)-8-methyl-4H-pyrimido[1,2-b]pyridazin-4-one] | 84 | 0.338
8 | Cc1c(N2CCc3ncc(-c4cncnc4)cc3C2)nn2c(=O)ccnc2c1C [Compound 1-104, 8,9-dimethyl-7-(3-(pyrimidin-5-yl)-7,8-dihydro-1,6-naphthyridin-6(5H)-yl)-4H-pyrimido[1,2-b]pyridazin-4-one] | 90 | 0.696
9 | Cc1cc2nccc(=O)n2nc1N1CCc2ncc(-c3cn(C)nc3C(F)F)cc2C1 [Compound 1-412, 7-(3-(3-(difluoromethyl)-1-methyl-1H-pyrazol-4-yl)-7,8-dihydro-1,6-naphthyridin-6(5H)-yl)-8-methyl-4H-pyrimido [1,2-b]pyridazin-4-one] | 86 | 0.352
10 | Cc1cc(=O)n2nc(N3CCc4ncc(-c5ccc(F)c(F)c5)cc4C3)c(C)c(C)c2n1 [Compound 1-205, 7-(3-(3,4-difluorophenyl)-7,8-dihydro-1,6-naphthyridin-6(5H)-yl)-2,8,9-trimethyl-4H-pyrimido[1,2-b]pyridazin-4-one] | 81 | 1.24
11 | Cc1cc2nccc(=O)n2nc1N1CCc2ncc(N3CCOC(Cc4ccccc4)C3)cc2C1 (stereo not drawn) [Compound 2-99, 7-(3-(2-benzylmorpholino)-7,8-dihydro-1,6-naphthyridin-6(5H)-yl)-8-methyl-4H-pyrimido[1,2-b]pyridazin-4-one] | 66 | 0.416
12 | Cc1cc(F)c(F)c(-c2cnc3c(c2)CN(c2nn4c(=O)cc(C)nc4c(C)c2C)CC3)c1 [Compound 1-272, 7-(3-(2,3-difluoro-5-methylphenyl)-7,8-dihydro-1,6-naphthyridin-6(5H)-yl)-2,8,9-trimethyl-4H-pyrimido[1,2-b]pyridazin-4-one] | 82 | 0.81

Compounds with a lower EC50, results first:

Row | Emax at 30 µM [%] | EC50 [µM] | Compound
13 | 99 | 0.228 | Cc1cc2nccc(=O)n2nc1N1CCc2ncc(Nc3ccc(F)nc3)cc2C1 [Compound 2-87, 7-(3-((6-fluoropyridin-3-yl)amino)-7,8-dihydro-1,6-naphthyridin-6(5H)-yl)-8-methyl-4H-pyrimido[1,2-b]pyridazin-4-one]
14 | 79 | 0.263 | Cc1cc2nccc(=O)n2nc1N1CCc2ncc(Nc3ccc(Cl)nc3)cc2C1 [Compound 2-126, 7-(3-((6-chloropyridin-3-yl)amino)-7,8-dihydro-1,6-naphthyridin-6(5H)-yl)-8-methyl-4H-pyrimido[1,2-b]pyridazin-4-one]
15 | 99 | 0.21 | Cc1cc(F)ccc1-c1cnc2c(c1)CN(c1nn3c(=O)ccnc3cc1C)CC2 [Compound 1-443, 7-(3-(4-fluoro-2-methylphenyl)-7,8-dihydro-1,6-naphthyridin-6(5H)-yl)-8-methyl-4H-pyrimido [1,2-b]pyridazin-4-one]
16 | 103 | 0.088 | Cc1ccc(-c2cnc3c(c2)CN(c2nn4c(=O)cc(C(F)F)nc4cc2C)CC3)cn1 [Compound 1-81, 2-(difluoromethyl)-8-methyl-7-(3-(6-methylpyridin-3-yl)-7,8-dihydro-1,6-naphthyridin-6(5H)-yl)-4H-pyrimido[1,2-b]pyridazin-4-one]
17 | 67 | 0.227 | COCc1cc(=O)n2nc(N3CCc4ncc(-c5ccc(OC(F)F)nc5)cc4C3)c(C)cc2n1 [Compound 1-374, 7-(3-(6-(difluoromethoxy)pyridin-3-yl)-7,8-dihydro-1,6-naphthyridin-6(5H)-yl)-2-(methoxymethyl)-8-methyl-4H-pyrimido[1,2-b]pyridazin-4-one]
18 | 93 | 0.131 | COc1c(F)cc(-c2cnc3c(c2)CN(c2nn4c(=O)ccnc4cc2C)CC3)c(C)c1F [Compound 1-444, 7-(3-(3,5-difluoro-4-methoxy-2-methylphenyl)-7,8-dihydro-1,6-naphthyridin-6(5H)-yl)-8-methyl-4H-pyrimido [1,2-b]pyridazin-4-one]
19 | 65 | 0.298 | COCc1cc(=O)n2nc(N3CCc4ncc(-c5ccc(C)o5)cc4C3)c(C)cc2n1 [Compound 1-372, 2-(methoxymethyl)-8-methyl-7-(3-(5-methylfuran-2-yl)-7,8-dihydro-1,6-naphthyridin-6(5H)-yl)-4H-pyrimido[1,2-b] pyridazin-4-one]
20 | 91 | 0.001 | Cc1cc2nc(C)c(C)c(=O)n2nc1N1CCc2ncc(Nc3ccncc3F)cc2C1 [Compound 2-158, 7-(3-((3-fluoropyridin-4-yl)amino)-7,8-dihydro-1,6-naphthyridin-6(5H)-yl)-2,3,8-trimethyl-4H-pyrimido[1,2-b]pyridazin-4-one]
21 | 95 | 0.022 | Cc1cc2nccc(=O)n2nc1N1CCc2ncc(N3CCc4ccccc43)cc2C1 [Compound 2-85, 7-(3-(indolin-1-yl)-7,8-dihydro-1,6-naphthyridin-6(5H)-yl)-8-methyl-4H-pyrimido[1,2-b]pyridazin-4-one]
